Several values for one entry are separate records, joined by “and”; a condition that tells them apart may be missing. Equal values may be shown once.
Legend:
mice [1] = test: Rotating rod test (neurotoxicity, myorelaxation); assay type: in vivo; conditions: i.p., myorelaxation in 50% of animals
Method in brief: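 Compounds given i.p. at 50 to 500 mg/kg; mice placed on a rubber-coated rod rotating at 5 rpm, counting animals unable to stay on for 2 min. TD50 derived by the Litchfield–Wilcoxon method.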

mouse = test: Elevated plus maze (EPM) test; assay type: in vivo; conditions: 50 mg/kg i.p., 5 min; for Number of Entries into the Closed Arms: control 9.4 ± 1.6; for Time Spent in the Center: control 28.2 ± 3.12; for Time Spent in Closed Arms: control 269.2 ± 10.4
Method in brief: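 Mice dosed intraperitoneally with compound or reference before testing, controls receiving emulsifier. Anxiolytic effect scored as increased entries into and time in open arms without raised total motor activity; closed-arm time and center-entry attempts also recorded; significance at p < 0.05.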

mice [2] = test: in vivo; conditions: dead animals after 24 h
Method in brief: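 Compounds are given intraperitoneally to mice at 50 to 500 mg/kg, with reference drugs at anticonvulsant doses. Muscle relaxation is scored on a rod rotating at 5 rpm as the number of animals unable to stay on for 2 min. ED50, TD50 and LD50 come from the Litchfield and Wilcoxon method.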

[3] = system: pentylenetetrazole (PTZ)-induced convulsions; test: Antagonism to pentylenetetrazole (PTZ) convulsions; assay type: in vivo; conditions: for ED50 (by PTZ antagonism): mice, i.p. 45 min before PTZ 90 mg/kg s.c., confidence limits in brackets, p = 0.05; for TI: therapeutic index TI = LD50/ED50
Method in brief: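 Outbred mice (18–22 g), six per dose, given compound or emulsifier vehicle; clonic seizures and convulsions after PTZ recorded over 1 h observation. ED50 derived by the Litchfield–Wilcoxon method.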

[4] = system: thiosemicarbazide (TSC)-induced convulsions; test: Thiosemicarbazide (TSC) seizures; assay type: in vivo, mice; conditions: mice; for Latency of Convulsions, Induced by TSC, M ± M: compound 100 mg/kg i.p. 45 min before TSC 18 mg/kg s.c.; for Latency of Convulsions, Induced by TSC, I (index of latent period of TSC seizures): compound 100 mg/kg i.p., relative to control = 1.0
Method in brief: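 Mice received compounds 100 mg/kg i.p. in carboxymethylcellulose/Tween-80 suspension 45 min before thiosemicarbazide 18 mg/kg s.c. (0.5% solution). Anti-TSC activity judged by latency to onset of clonic seizures.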

mice [5] = test: Forced swimming test; conditions: 50 mg/kg, 6 min; for Total Time of Immobilization: control 42.0 ± 7.24; for Total Time of Active Swimming: control 318.0 ± 8.36;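 for all read-outs here: mice made to swim in a water-filled glass vessel under natural light, with durations of active swimming and immobility recorded across the 6 min session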
Experimental: Forced swimming test. To assess “despair and depression”, the “compelling swimming” model was used. Experimental animals were forced to swim in a glass container (height 22 cm, diameter 14 cm), filled 1/3 with water. […] The latent period of immobilization, the total duration of active swimming and immobilization are fixed at 6 min (the experiments were conducted under natural light).

rats [6] = test: Open field test; assay type: in vivo; conditions: 50 mg/kg i.p.; for Cells Examination, amount (absolute data during 5 min): control 2.4 ± 0.67; for Vertical Displacement, amount (absolute data during 5 min): control 7.0 ± 2.14; for Horizontal Displacement, amount (absolute data during 5 min): control 21.6 ± 2.25
Method in brief: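 Rats observed for 5 min in a modified open field whose floor is divided into squares with holes, in daytime under natural light. Horizontal movements, rearing and hole sniffing were counted; eight animals per compound, control and reference drug.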

rats [7] = test: Electroshock retrograde amnesia, conditioned response of passive avoidance (CRPA); assay type: in vivo; conditions: 50 mg/kg, study for 5 min; for The Time Spent in the Light Chamber during the Training of the CRPA, First Day: control 280.0 ± 7.5; for The Time Spent in the Light Chamber When Playing CRPA + MESH after 24 h, Second Day: control 281.0 ± 6.1
Experimental: Test for learning and memory. The antiamnesic properties of the compounds were studied using an electroshock amnesia model modified by J. Bures, O. Buresova. In rats, a conditioned passive avoidance reaction (CRPA) to a dark-light setting was developed, while the training of the animals with CRPA was recorded. The residence times in the light and dark compartments were recorded for 5 min (300 s). Then, in the dark compartment, the animal received a single current shock (0.4 mA) through the electrode floor (training). To obtain amnesia, a maximum electroconvulsive seizure is induced in animals (conducting a maximum electric current of 50 Hz for 0.2 s through corneal electrodes). Conducting an electric shock immediately after training causes the erasure of the memory trace. The test for reproduction is carried out 24 h after training—after the development of CRPA. During this period, the control animals forget the training and prefer to be in the dark part of the chamber. An increase in the time spent by rats in the light compartment compared to the control on the second day indicates the presence of antiamnestic properties of the compounds.

| Molecule | melting point | TD50 (mice [1]) | Time Spent in the Open Arms (mouse; control 2.6 ± 1.6) | Number of Entries into the Closed Arms (mouse) | Time Spent in the Center (mouse) | Time Spent in Closed Arms (mouse) | LD50 (mice [2]) | ED50 (by PTZ antagonism) [3] | TI [3] | Latency of Convulsions, Induced by TSC, M ± M [4] | Latency of Convulsions, Induced by TSC, I (index of latent period of TSC seizures) [4] | Total Time of Immobilization (mice [5]) | Total Time of Active Swimming (mice [5]) | Cells Examination, amount (absolute data during 5 min) (rats [6]) | Vertical Displacement, amount (absolute data during 5 min) (rats [6]) | Horizontal Displacement, amount (absolute data during 5 min) (rats [6]) | The Time Spent in the Light Chamber during the Training of the CRPA, First Day (rats [7]) | The Time Spent in the Light Chamber When Playing CRPA + MESH after 24 h, Second Day (rats [7]) | Time Spent in the Open Arms (mouse; control 2.6 ± 1.6, 50 mg/kg) |
| --- | --- | --- | --- | --- | --- | --- | --- | --- | --- | --- | --- | --- | --- | --- | --- | --- | --- | --- | --- |
| CCCc1nc(N2CCN(C(=O)Cn3cc(COc4nc(-c5ccco5)c5c(c4C#N)CCCC5)nn3)CC2)c(C#N)c2c1COC(C)(C)C2 [7l, 6-(4-{[4-({[4-Cyano-1-(2-furyl)-5,6,7,8-tetrahydroisoquinolin-3-yl]oxy}methyl)-1H-1,2,3-triazol-1-yl]acetyl}piperazin-1-yl)-3,3-dimethyl-8-propyl-3,4-dihydro-1H-pyrano [3,4-c]pyridine-5-carbonitrile] | 144 to 146 °C | – | – | – | – | – | – | – | – | – | – | – | – | – | – | – | – | – | – |
| 6-{4-[(4-{[(5-Cyano-3,3-dimethyl-8-propyl-3,4-dihydro-1H-pyrano [3,4-c]pyridin-6-yl)oxy]methyl}-1H-1,2,3-triazol-1-yl)acetyl]piperazin-1-yl}-1-ethyl-3,3-dimethyl-3,4-dihydro-1H-pyrano [3,4-c]pyridine-5-carbonitrile [7t] | – | >500 mg/kg | 23.0 ± 5.51 s | 1.6 ± 0.67 | 9.0 ± 2.2 s | 268.0 ± 5.56 s | 768 (640 ÷ 922) mg/kg | 30 (24.2 ÷ 42) mg/kg | 25.6 | 43.8 ± 4.34 min | 4.38 | 62.0 ± 6.77 s | 298.0 ± 16.64 s | 2.6 ± 0.79 | 10.6 ± 3.84 | 46.0 ± 7.37 | – | – | – |
| 6-{4-[(4-{[(4-Cyano-1-isopropyl-5,6,7,8-tetrahydroisoquinolin-3-yl)oxy]methyl}-1H-1,2,3-triazol-1-yl)acetyl]piperazin-1-yl}-3,3-dimethyl-1-propyl-3,4-dihydro-1H-pyrano [3,4-c]pyridine-5-carbonitrile [7i] | – | >500 mg/kg | 42.0 ± 8.43 s | 2.2 ± 0.61 | 16.0 ± 5.2 s | 242.0 ± 16.46 s | 695 (579 ÷ 834) mg/kg | – | 20.4 | 41.0 ± 1.75 min | 4.1 | 62.0 ± 5.04 s | 300.0 ± 19.35 s | 3.4 ± 1.89 | 15.0 ± 4.28 | 50.2 ± 5.5 | 286.0 ± 6.3 s | 299.0 ± 6.3 s | – |
| 6-{4-[(4-{[(5-Cyano-3,3,8-trimethyl-3,4-dihydro-1H-pyrano [3,4-c]pyridin-6-yl)oxy]methyl}-1H-1,2,3-triazol-1-yl)acetyl]piperazin-1-yl}-1-ethyl-3,3-dimethyl-3,4-dihydro-1H-pyrano [3,4-c]pyridine-5-carbonitrile [7n] | – | >500 mg/kg | 12.0 ± 1.4 s | 1.4 ± 1.2 | 82.0 ± 15.2 s | 204.0 ± 14.2 s | 820 (689 ÷ 976) mg/kg | 26 (18.6 ÷ 36.4) mg/kg | 31.5 | 41.2 ± 1.61 min | 4.12 | 42.0 ± 12.04 s | 324.0 ± 22.4 s | 3.0 ± 0.89 | 11.6 ± 2.5 | 52.2 ± 12.2 | 283.0 ± 7.1 s | 297.0 ± 6.8 s | – |
| 6-{4-[(4-{[(4-Cyano-1-methyl-5,6,7,8-tetrahydroisoquinolin-3-yl)oxy]methyl}-1H-1,2,3-triazol-1-yl)acetyl]piperazin-1-yl}-1,3,3-trimethyl-3,4-dihydro-1H-pyrano [3,4-c]pyridine-5-carbonitrile [7d] | – | >500 mg/kg | 21.0 ± 3.2 s | 1.36 ± 0.8 | 15.0 ± 3.62 s | 264 ± 8.12 s | 800 (672 ÷ 952) mg/kg | 16 (13.1 ÷ 19.5) mg/kg | – | 41.2 ± 1.61 min | 4.12 | 77.4 ± 7.1 s | 300.0 ± 29.2 s | 6.2 ±0.38 | 14.4 ± 3.98 | 38.6 ± 5.18 | 284.0 ± 6.8 s | 299.0 ± 7.2 s | – |
| 6-{4-[(4-{[(4-Cyano-1-isopropyl-5,6,7,8-tetrahydroisoquinolin-3-yl)oxy]methyl}-1H-1,2,3-triazol-1-yl)acetyl]piperazin-1-yl}-1,3,3-trimethyl-3,4-dihydro-1H-pyrano [3,4-c]pyridine-5-carbonitrile [7g] | – | >500 mg/kg | – | 6.0 ± 1.67 | 53.4 ± 3.53 s | 237.8 ± 12.5 s | 680 (571 ÷ 809) mg/kg | 18 (10.6 ÷ 30.6) mg/kg | 37.8 | 28.4 ± 0.67 min | 2.84 | 3.0 ± 0.6 s | 357.0 ± 13.5 s | 10.0 ± 3.56 | 9.0 ± 2.34 | 49.0 ± 7.16 | 283.0 ± 5.2 s | 297.0 ± 7.2 s | 6.6 s and 6.6 ± 2.3 s |
